Numbered stars: 1 amine (or outer) side, 2 acyl side, 3 side chain; on linkers, the order of the positions; unused ones are H or OH. Square brackets hold non-standard residues; d marks the D form. Peptide text beside a SMILES is read from it. * marks the point of attachment. β3hPhe(2R-OH) = O=C([C@H](O)[C@H](Cc1ccccc1)N[*:1])[*:2]; Tetrazole5carbonyl = O=C(c1nn[nH]n1)*; Oxalyl = O=C(C(=O)[*:2])[*:1]; Dap = NC[C@H](N)C(=O)O
Legend:
Beta-secretase 1 [1] = target: T1, Beta-secretase 1 (Homo sapiens, UniProt P56817); assay: Inhibitory activity against beta-secretase 1 (BACE1) at 0.2 uM
Beta-secretase 1 [2] = target: T1, Beta-secretase 1; assay: Inhibitory activity against beta-secretase 1 (BACE1) at 2 uM
Beta-secretase 1 [3] = target: T1, Beta-secretase 1; assay: Inhibitory activity against beta-secretase 1 (BACE1)

T1 sequence (P56817 whole entry): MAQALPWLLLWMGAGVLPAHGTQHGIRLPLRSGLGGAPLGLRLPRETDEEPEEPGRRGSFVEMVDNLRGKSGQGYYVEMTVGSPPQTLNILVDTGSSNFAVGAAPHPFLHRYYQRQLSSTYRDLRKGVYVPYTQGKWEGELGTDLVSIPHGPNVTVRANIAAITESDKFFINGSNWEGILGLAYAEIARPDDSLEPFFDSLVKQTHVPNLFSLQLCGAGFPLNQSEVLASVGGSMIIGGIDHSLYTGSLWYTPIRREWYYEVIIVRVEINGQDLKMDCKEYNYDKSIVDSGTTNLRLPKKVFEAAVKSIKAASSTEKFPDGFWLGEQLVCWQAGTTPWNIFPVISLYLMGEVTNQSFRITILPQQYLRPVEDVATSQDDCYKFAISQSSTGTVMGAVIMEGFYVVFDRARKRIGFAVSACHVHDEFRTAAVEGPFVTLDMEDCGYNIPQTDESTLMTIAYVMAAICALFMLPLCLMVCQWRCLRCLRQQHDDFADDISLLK

SMILES	inhibition (Beta-secretase 1 [1])	inhibition (Beta-secretase 1 [2])	IC50 (Beta-secretase 1 [3])
CC(C)C[C@H](NC(=O)[C@@H](NC(=O)[C@@H](N)CNC(=O)C(=O)O)C(C)C)C(=O)N[C@@H](Cc1ccccc1)[C@@H](O)C(=O)Nc1cc(C(=O)O)cc(C(=O)O)c1	96.7%	99.8%	4.7 nM
CC(C)C[C@H](NC(=O)[C@@H](NC(=O)[C@@H](N)CNC(=O)c1nnn[nH]1)C(C)C)C(=O)N[C@@H](Cc1ccccc1)[C@@H](O)C(=O)Nc1cccc(C(=O)O)c1	–	–	8.2 nM
CC(C)C[C@H](NC(=O)[C@@H](NC(=O)[C@@H](N)CNC(=O)c1nn[nH]n1)C(C)C)C(=O)N[C@@H](Cc1ccccc1)[C@@H](O)C(=O)Nc1cc(C(=O)O)cc(C(=O)O)c1	98.1%	100%	–
CC(C)C[C@H](NC(=O)[C@@H](NC(=O)[C@@H](N)CNC(=O)C(=O)O)C(C)C)C(=O)N[C@@H](Cc1ccccc1)[C@@H](O)C(=O)Nc1cccc(C(=O)O)c1	85.5%	98.4%	16 nM
CC(C)C[C@H](NC(=O)[C@@H](NC(=O)[C@H](CN)NC(=O)c1nn[nH]n1)C(C)C)C(=O)N[C@@H](Cc1ccccc1)[C@@H](O)C(=O)Nc1cccc(C(=O)O)c1	–	0%	–
CC(C)C[C@H](NC(=O)[C@@H](NC(=O)[C@@H](N)CNC(=O)c1nnn[nH]1)C(C)C)C(=O)N[C@@H](Cc1ccccc1)[C@@H](O)C(=O)Nc1cc(C(=O)O)cc(C(=O)O)c1	–	–	3.9 nM

Further lines, with some results ahead:

inhibition (Beta-secretase 1 [1])	inhibition (Beta-secretase 1 [2])	SMILES	IC50 (Beta-secretase 1 [3])
–	23.2%	CC(C)C[C@H](NC(=O)[C@@H](NC(=O)[C@H](CN)NC(=O)c1nn[nH]n1)C(C)C)C(=O)N[C@@H](Cc1ccccc1)[C@@H](O)C(=O)N[C@@H](CC(=O)O)C(=O)N[C@@H](C)C(=O)N[C@@H](CCC(=O)O)C(=O)O (Tetrazole5carbonyl-[Dap]VL[β3hPhe(2R-OH)]DAE-OH)	–
57.6%	96.7%	CC(C)C[C@H](NC(=O)[C@@H](NC(=O)[C@@H](N)CNC(=O)C(=O)O)C(C)C)C(=O)N[C@@H](Cc1ccccc1)[C@@H](O)C(=O)N[C@@H](CC(=O)O)C(=O)N[C@@H](C)C(=O)N[C@@H](CCC(=O)O)C(=O)O (H-[Dap](Oxalyl)VL[β3hPhe(2R-OH)]DAE-OH)	84 nM
87.1%	99%	CC(C)C[C@H](NC(=O)[C@@H](NC(=O)[C@@H](N)CNC(=O)c1nn[nH]n1)C(C)C)C(=O)N[C@@H](Cc1ccccc1)[C@@H](O)C(=O)Nc1cccc(C(=O)O)c1	–
73.1%	93%	CC(C)C[C@H](NC(=O)[C@@H](NC(=O)[C@@H](N)CNC(=O)c1nn[nH]n1)C(C)C)C(=O)N[C@@H](Cc1ccccc1)[C@@H](O)C(=O)N[C@@H](CC(=O)O)C(=O)N[C@@H](C)C(=O)N[C@@H](CCC(=O)O)C(=O)O (H-[Dap](Tetrazole5carbonyl)VL[β3hPhe(2R-OH)]DAE-OH)	–
58.6%	87.9%	CC(C)C[C@H](NC(=O)[C@@H](NC(=O)[C@H](CN)NC(=O)C(=O)O)C(C)C)C(=O)N[C@@H](Cc1ccccc1)[C@@H](O)C(=O)Nc1cccc(C(=O)O)c1	–
–	75.2%	CC(C)C[C@H](NC(=O)[C@@H](NC(=O)[C@H](CN)NC(=O)C(=O)O)C(C)C)C(=O)N[C@@H](Cc1ccccc1)[C@@H](O)C(=O)N[C@@H](CC(=O)O)C(=O)N[C@@H](C)C(=O)N[C@@H](CCC(=O)O)C(=O)O (Oxalyl-[Dap]VL[β3hPhe(2R-OH)]DAE-OH)	–

Source: ChEMBL document CHEMBL1145220, “Design and synthesis of highly active Alzheimer's beta-secretase (BACE1) inhibitors, KMI-420 and KMI-429, with enhanced chemical stability” (Bioorg Med Chem Lett, 2005)
